Entries after “also recorded” stand apart in the source; their conditions may differ. Read-outs that look alike come from different tables or passages of the source. Non-standard residues stand in square brackets, D forms with d. Residues, ends and D or L forms follow the SMILES beside them. 1Nal = N[C@@H](Cc1cccc2ccccc12)C(=O)O; NMeF = CN[C@@H](Cc1ccccc1)C(=O)O; Cha = N[C@@H](CC1CCCCC1)C(=O)O; dCha = N[C@H](CC1CCCCC1)C(=O)O
T1: C5a receptor (Homo sapiens, UniProt P21730)
T1 construct: followed by a 20 μL aliquot of neutrophil membrane; endogenous in cells
T1 sequence (P21730 1-350): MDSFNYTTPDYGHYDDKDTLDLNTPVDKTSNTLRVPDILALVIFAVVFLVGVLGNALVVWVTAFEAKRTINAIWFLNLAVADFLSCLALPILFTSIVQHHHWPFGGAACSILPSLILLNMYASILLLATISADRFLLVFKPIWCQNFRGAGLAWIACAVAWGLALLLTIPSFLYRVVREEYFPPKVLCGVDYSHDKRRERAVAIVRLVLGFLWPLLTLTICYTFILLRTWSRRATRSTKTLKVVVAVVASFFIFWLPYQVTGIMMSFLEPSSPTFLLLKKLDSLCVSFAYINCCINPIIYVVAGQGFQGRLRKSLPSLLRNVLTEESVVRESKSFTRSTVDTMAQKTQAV


Key:
human neutrophils = experiment: Degranulation, myeloperoxidase (MPO) release from human neutrophils (agonism); format: cell-based; conditions: for EC50: MPO release, read-out: ED50 for degranulation; for EC50/IC50 (degranulation/binding): ratio degranulation EC50 to binding IC50
Protocol: FIG. 5A and 5B. Degranulation and Ca^2+ responses to the hexapeptides. […] The ED50 's for the degranulation are: C5a, 0.5 nM; C028, 0.2 μM; C026, 1 μM. C5a, maximally, released 57% of the total cellular content of MPO. The ability of these molecules to elicite a Ca^2+ -flux is shown in B. The concentrations used for C028 (10 μM), C026 (10 μM), C061 (100 μM) are those which produce a maximal flux. A saturating concentration was also used for C5a (1 nM).
This assay was performed on human neutrophils as previously reported and it is a measure of C5a or peptide induced exocytosis (Rollins, T. E. and Springer, M. S. (1985) J. Biol. Chem. 260, 7157-7160).
The functional properties of two of the peptides, C026, and C028, were originally described by Mollison et. al (Mollison, K. W., Krause, R. A., Fey, T. A., Miller, L., Wiedeman, P. e., Kawai, M., Lane, B., Luly, J. R. and Carter, G. W. (1992) FASEB J. 6, A2058). […] We have reinvestigated the degranulating activities of these peptides as measured by the release of myeloperoxidase (MPO) from human neutrophils. […] The EC50 /IC50 (degranulation/binding) for C028 is 8, the same as that measured for C5a (Table II, FIG. 5A). […] However, the difference in activity between C026 and C028 is significant and reproducible. Since the structural difference between the two is the substitution of an aromatic for an aliphatic residue (Phe for Cha) we chose to make additional changes at position 5 which further increased aromaticity. […] To further examine whether the differences in activity between the peptides reflects the increased aromaticity we synthesized a molecule with Leu, an aliphatic amino acid, at position 5 (C068, Table II).

C5a receptor = molecular target: T1, C5a receptor; experiment: Competition binding against 125I-labeled intact C5a on human neutrophil (PMN) membranes
Source text: The affinity of these peptides is shown, for example, by radiolabeling intact C5a, and using the unlabeled peptide to compete the labeled C5a from C5a receptor binding sites on cellular membranes. Preparations of polymorphonuclear leukocytes (PMN's) are known to express the C5a receptor, (inhibition of the chemotactic response to C5a of this type of cell is one desirable utility for compounds identified by the instant assay). One method for preparing these membranes is described by Rollins, T. E. et al., [J. Biol. Chem. 264:520-526 (1988); see also U.S. Pat. No. 5,177,190, herein incorporated by reference as a method for isolating and purifying C5a receptor]. Briefly, this involves isolating PMN's in large quantity, disrupting these cells and obtaining the membrane fraction by centrifugation. Protein assay of the membrane preparation allows for standardization of the amount of protein added in any set of membrane binding experiments.
In FIG. 1, unlabeled C013 is used to compete with ^125 I-labeled C5a. […] In FIG. 2, the C013 is ^125 I labeled. Unlabeled C5a and unlabeled C013 are each used to compete the labeled C013 from C5a binding sites on the membranes. […] In FIG. 3a, ^125 I-C5a is competed from its binding site by unlabeled C064 and unlabeled, natural C5a (as opposed to recombinant C5a, which, however, may also obviously may be used for these purposes). […] In FIG. 3b, the inverse experiment is shown, wherein ^125 I-C064 is displaced by unlabeled C064 and unlabeled nC5a.
Hexapeptides within this class differing only at position X have similar affinities for the C5a receptor. As measured in competition binding experiments against ^125 I-C5a on human neutrophil membranes their IC50 's varied by only a factor of 3, from 25 to 80 nM (Table II):
^2 Binding experiments were carried out with human neutrophil
Binding is initiated by an addition of 20 μL of PMN membrane (typically 0.5 μg of protein) to each tube. After incubation for 90 min. at room temperature 2 ml of 0.05 M HEPES, pH 7.2, containing 0.5% BSA are added to the tube, the contents vortexed and filtered over a Whatman GF/C filter which has been soaked in 0.3% polyethylenimine. An additional 2 ml of buffer are added to the tube and used to wash the filter. All of the test samples are dissolved in DMSO, another water miscible organic solvent, or in an aqueous solvent. Non-specific background was determined by inclusion of a 100-fold excess of unlabeled C5a.
The percent inhibition is calculated according to the following formula: [formula]
Iodination of C5a was carded out with the use of chloramine T. (Rollins, T.E., and Springer, M.S. (1985) J. Biol. Chem. 260, 7157-7160). […] Concentrations of C5a were determined by amino acid analysis and by RIA (Amersham Corp.). Membranes were prepared from human PMN as described by Rollins, T.E., Sciliano, S and Springer, M.S., J. Biol Chem 264 520-526 (1988).

[1] = Table II, human neutrophil membranes, competition against 125I-C5a, read-out: Binding IC50

Row | IC50 (C5a receptor; [1]) [nM] | EC50 (human neutrophils; FIG. 5A) [nM] | EC50/IC50 (degranulation/binding) (human neutrophils) | Molecule | degranulating activity in words (human neutrophils; FIG. 5A) | further results
1 | 80 |  |  | CN[C@@H](Cc1ccccc1)C(=O)N[C@@H](CCCCN)C(=O)N1CCC[C@H]1C(=O)N[C@H](CC1CCCCC1)C(=O)N[C@@H](Cc1cccc2ccccc12)C(=O)N[C@H](CCCNC(=N)N)C(=O)O [C061] (H-[NMeF]KP[dCha][1Nal][dR]-OH) | totally devoid of degranulating activity | 
2 | 50 | 1000 | 20 | CN[C@@H](Cc1ccccc1)C(=O)N[C@@H](CCCCN)C(=O)N1CCC[C@H]1C(=O)N[C@H](CC1CCCCC1)C(=O)N[C@@H](Cc1ccccc1)C(=O)N[C@H](CCCNC(=N)N)C(=O)O [C026, NMeF--K--P-dCha-F-dR] (H-[NMeF]KP[dCha]F[dR]-OH) | partial agonist for degranution induction; also recorded: retains substantial degranulating activity | MPO release relative to the maximal release produced by C5a or C028 (human neutrophils; maximal effect, FIG. 5A): 50%
3 |  |  |  | CN[C@@H](Cc1ccccc1)C(=O)N[C@@H](CCCCN)C(=O)N1CCC[C@H]1C(=O)N[C@H](CC1CCCCC1)C(=O)N[C@@H](Cc1c[nH]c2ccccc12)C(=O)N[C@H](CCCNC(=N)N)C(=O)O [C089] | totally devoid of degranulating activity | binding affinity in words (C5a receptor): excellent ability to inhibit C5a binding
4 |  |  |  | CC(C)C[C@H](NC(=O)[C@H](CC1CCCCC1)NC(=O)[C@H](CC1CCCCC1)NC(=O)[C@H](C)NC(=O)[C@H](CCCCN)NC(=O)[C@H](Cc1ccccc1)NC(=O)[C@@H](N)Cc1ccc(O)cc1)C(=O)N[C@H](Cc1ccccc1)C(=O)N[C@@H](CCCNC(=N)N)C(=O)O [C009, Tyr Phe Lys Ala Cha Cha Leu dPhe Arg] (H-YFKA[Cha][Cha]L[dF]R-OH) |  | Ki (C5a receptor): 8 nM
5 | 25 | 200 | 8 | CN[C@@H](Cc1ccccc1)C(=O)N[C@@H](CCCCN)C(=O)N1CCC[C@H]1C(=O)N[C@H](CC1CCCCC1)C(=O)N[C@@H](CC1CCCCC1)C(=O)N[C@H](CCCNC(=N)N)C(=O)O [C028, MePhe Lys Pro dCha Cha dArg] (H-[NMeF]KP[dCha][Cha][dR]-OH) | full agonist for degranulation | 
6 | 0.03 | 0.5 | 8 | C5a: 74 amino acid protein derived from the fifth component of serum complement during complement activation (protein, UniProt P01031 678-751, looked up, C5a anaphylatoxin) C5a anaphylatoxin: TLQKKIEEIAAKYKHSVVKKCCYDGACVNNDETCEQRAARISLGPRCIKAFTECCVVASQLRANISHKDMQLGR |  | release of total cellular MPO (human neutrophils; 0.4 nM C5a or 8 nM IL-8, cells without C089): 22%; maximal release of total cellular content of MPO (human neutrophils; maximal, FIG. 5A): 57%; IC50 (C5a receptor; labeled ligand 125I-C5a, read-out: IC50 exhibited by the unlabeled ligand): 0.066 nM

Reference: US5614370A, “Assay to identify human C5a antagonists and agonists” (Merck & Co., Inc., priority 1994, dated 1997)
